Target: human A2A receptor (A2AR) (Homo sapiens (Human), UniProt P29274)
Experiment: Luciferase reporter assay (HEK293-A2AR-luc2p/CRE/Hygro cells)
Type: cell-based
Settings: 3 nM CGS21680, 5 h incubation
Procedure, shortened: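 Antagonism was scored as inhibition of CRE-luciferase signal driven by 3 nM CGS21680 (=100%) during a 5 h treatment with compound at 0.1–10000 nM. The line was HEK293 stably carrying human A2AR and luc2P/CRE, preincubated 18 h in 1% FBS containing 1 U/mL ADA. IC50 came from the dose-response curve.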

Chain of human A2A receptor (A2AR) (P29274 whole entry): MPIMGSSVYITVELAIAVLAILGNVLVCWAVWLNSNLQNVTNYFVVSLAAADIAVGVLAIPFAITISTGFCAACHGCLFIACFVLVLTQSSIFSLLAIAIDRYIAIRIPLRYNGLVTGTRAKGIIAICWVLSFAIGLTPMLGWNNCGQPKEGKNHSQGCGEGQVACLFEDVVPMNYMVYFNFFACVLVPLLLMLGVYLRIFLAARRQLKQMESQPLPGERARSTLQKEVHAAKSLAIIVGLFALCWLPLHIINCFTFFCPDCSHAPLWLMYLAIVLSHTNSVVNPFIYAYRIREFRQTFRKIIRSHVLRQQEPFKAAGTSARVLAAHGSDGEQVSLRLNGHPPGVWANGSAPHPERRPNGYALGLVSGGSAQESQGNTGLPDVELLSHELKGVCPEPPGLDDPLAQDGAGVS

| SMILES | IC50 |
| --- | --- |
| CC(Cc1ccccc1)(C(=O)NCC1(O)COC1)n1ncc2c1nc(N)n1nc(-c3ccco3)nc21 (centres unmarked) [Example 132, 2-(5-amino-2-(furan-2-yl)-7H-pyrazolo[4,3-e][1,2,4]triazolo[1,5-c]pyrimidin-7-yl)-N-((3-hydroxyoxetan-3-yl)methyl)-2-methyl-3-phenylpropanamide] | 15.7 nM |
| CC(C(=O)NCC1(O)COC1)(c1ccccc1)n1ncc2c1nc(N)n1nc(-c3nccs3)nc21 (centres unmarked) [Example 133, 2-(5-amino-2-(thiazol-2-yl)-7H-pyrazolo[4,3-e][1,2,4]triazolo[1,5-c]pyrimidin-7-yl)-N-((3-hydroxyoxetan-3-yl)methyl)-2-phenylpropanamide] | 15 nM |
| COc1cccc(C(C)(C(=O)NCC2(O)COC2)n2ncc3c2nc(N)n2nc(-c4ccco4)nc32)c1 (centres unmarked) [Example 137, 2-(5-amino-2-(furan-2-yl)-7H-pyrazolo[4,3-e][1,2,4]triazolo[1,5-c]pyrimidin-7-yl)-N-((3-hydroxyoxetan-3-yl)methyl)-2-(3-methoxyphenyl)propanamide] | 13 nM |
| CC(C)(C(=O)NCC1(O)COC1)n1ncc2c1nc(N)n1nc(-c3ccco3)nc21 [Example 138, 2-(5-amino-2-(furan-2-yl)-7H-pyrazolo[4,3-e][1,2,4]triazolo[1,5-c]pyrimidin-7-yl)-N-((3-hydroxyoxetan-3-yl)methyl)-2-methylpropanamide] | 33.2 nM |
| COc1ccccc1C(C)(C(=O)N[C@H]1CC[C@](C)(O)CC1)n1ncc2c1nc(N)n1nc(-c3ccco3)nc21 (stereo partly drawn) [Example 140, 2-(5-amino-2-(furan-2-yl)-7H-pyrazolo[4,3-e][1,2,4]triazolo[1,5-c]pyrimidin-7-yl)-N-((cis)-4-hydroxy-4-methylcyclohexyl)-2-(2-methoxyphenyl)propanamide] | 1.2 nM |
| CN1CCN(CCNC(=O)C(C)(c2ccccc2)n2ncc3c2nc(N)n2nc(-c4ccco4)nc32)CC1 (centres unmarked) [Example 147, 2-(5-amino-2-(furan-2-yl)-7H-pyrazolo[4,3-e][1,2,4]triazolo[1,5-c]pyrimidin-7-yl)-N-(2-(4-methylpiperazin-1-yl)ethyl)-2-phenylpropanamide] | 24.7 nM |
| CN1CCN(CCNC(=O)[C@@](C)(c2ccccc2)n2ncc3c2nc(N)n2nc(-c4ccco4)nc32)CC1 [Example 147B, (R)-2-(5-amino-2-(furan-2-yl)-7H-pyrazolo[4,3-e][1,2,4]triazolo[1,5-c]pyrimidin-7-yl)-N-(2-(4-methylpiperazin-1-yl)ethyl)-2-phenylpropanamide] | 18.9 nM |
| C[C@](C(=O)NCCN1CCC(O)CC1)(c1ccccc1)n1ncc2c1nc(N)n1nc(-c3ccco3)nc21 [Example 148B, (R)-2-(5-amino-2-(furan-2-yl)-7H-pyrazolo[4,3-e][1,2,4]triazolo[1,5-c]pyrimidin-7-yl)-N-(2-(4-hydroxypiperidin-1-yl)ethyl)-2-phenylpropanamide] | 19.3 nM |
| Cc1cccc(CCNC(=O)[C@@](C)(c2ccccc2)n2ncc3c2nc(N)n2nc(-c4ccco4)nc32)n1 [Example 150B, (R)-2-(5-amino-2-(furan-2-yl)-7H-pyrazolo[4,3-e][1,2,4]triazolo[1,5-c]pyrimidin-7-yl)-N-(2-(6-methylpyridin-2-yl)ethyl)-2-phenylpropanamide] | 26.5 nM |

Now from value to compound:

| IC50 | SMILES |
| --- | --- |
| 7.6 nM | C[C@](C(=O)NC1CCC(=O)CC1)(c1ccccc1)n1ncc2c1nc(N)n1nc(-c3ccco3)nc21 [Example 128B, (R)-2-(5-amino-2-(furan-2-yl)-7H-pyrazolo[4,3-e][1,2,4]triazolo[1,5-c]pyrimidin-7-yl)-N-(4-oxocyclohexyl)-2-phenylpropanamide] |
| 6.9 nM | CC(C(=O)NCc1cccc(C2(O)CCC2)n1)(c1ccccc1)n1ncc2c1nc(N)n1nc(-c3ccco3)nc21 (centres unmarked) [Example 130, 2-(5-amino-2-(furan-2-yl)-7H-pyrazolo[4,3-e][1,2,4]triazolo[1,5-c]pyrimidin-7-yl)-N-((6-(1-hydroxycyclobutyl)pyridin-2-yl)methyl)-2-phenylpropanamide] |
| 11.2 nM | CC(C(=O)N[C@@H]1CC[C@H](O)C1)(c1ccccc1)n1ncc2c1nc(N)n1nc(-c3ccco3)nc21 (stereo partly drawn) [Example 135, 2-(5-amino-2-(furan-2-yl)-7H-pyrazolo[4,3-e][1,2,4]triazolo[1,5-c]pyrimidin-7-yl)-N-((1R,3S)-3-hydroxycyclopentyl)-2-phenylpropanamide] |
| 7.9 nM | CC(C(=O)N[C@H]1CC[C@@H](O)C1)(c1ccccc1)n1ncc2c1nc(N)n1nc(-c3ccco3)nc21 (stereo partly drawn) [Example 136, 2-(5-amino-2-(furan-2-yl)-7H-pyrazolo[4,3-e][1,2,4]triazolo[1,5-c]pyrimidin-7-yl)-N-((1S,3R)-3-hydroxycyclopentyl)-2-phenylpropanamide] |
| 1.1 nM | C[C@](C(=O)NCc1ncccc1C(F)(F)F)(c1ccccc1)n1ncc2c1nc(N)n1nc(-c3ccco3)nc21 [Example 141B, (R)-2-(5-amino-2-(furan-2-yl)-7H-pyrazolo[4,3-e][1,2,4]triazolo[1,5-c]pyrimidin-7-yl)-2-phenyl-N-((3-(trifluoromethyl)pyridin-2-yl)methyl)propanamide] |
| 1 nM | C[C@](C(=O)NCc1ccc(C(F)(F)F)cn1)(c1ccccc1)n1ncc2c1nc(N)n1nc(-c3ccco3)nc21 [Example 142B, (R)-2-(5-amino-2-(furan-2-yl)-7H-pyrazolo[4,3-e][1,2,4]triazolo[1,5-c]pyrimidin-7-yl)-2-phenyl-N-((5-(trifluoromethyl)pyridin-2-yl)methyl)propanamide] |
| 5.8 nM | C[C@](C(=O)NCc1cc(C(F)(F)F)ccn1)(c1ccccc1)n1ncc2c1nc(N)n1nc(-c3ccco3)nc21 [Example 143B, (R)-2-(5-amino-2-(furan-2-yl)-7H-pyrazolo[4,3-e][1,2,4]triazolo[1,5-c]pyrimidin-7-yl)-2-phenyl-N-((4-(trifluoromethyl)pyridin-2-yl)methyl)propanamide] |
| 2.1 nM | C[C@](C(=O)NCc1cccc(C(F)(F)F)n1)(c1ccccc1)n1ncc2c1nc(N)n1nc(-c3ccco3)nc21 [Example 144B, (R)-2-(5-amino-2-(furan-2-yl)-7H-pyrazolo[4,3-e][1,2,4]triazolo[1,5-c]pyrimidin-7-yl)-2-phenyl-N-((6-(trifluoromethyl)pyridin-2-yl)methyl)propanamide] |
| 9 nM | C[C@](C(=O)NC1CCSCC1)(c1ccccc1)n1ncc2c1nc(N)n1nc(-c3ccco3)nc21 [Example 145B, (R)-2-(5-amino-2-(furan-2-yl)-7H-pyrazolo[4,3-e][1,2,4]triazolo[1,5-c]pyrimidin-7-yl)-2-phenyl-N-(tetrahydro-2H-thiopyran-4-yl)propanamide] |
| 1.7 nM | C[C@](C(=O)NCCC1CCC(O)CC1)(c1ccccc1)n1ncc2c1nc(N)n1nc(-c3ccco3)nc21 (stereo partly drawn) [Example 149B, (R)-2-(5-amino-2-(furan-2-yl)-7H-pyrazolo[4,3-e][1,2,4]triazolo[1,5-c]pyrimidin-7-yl)-N-(2-(4-hydroxycyclohexyl)ethyl)-2-phenylpropanamide] |
| 2 nM | CC(=O)O[C@H]1CC[C@@H](NC(=O)[C@@](C)(c2ccccc2)n2ncc3c2nc(N)n2nc(-c4ccco4)nc32)CC1 [Example 151B, (cis)-4-((R)-2-(5-amino-2-(furan-2-yl)-7H-pyrazolo[4,3-e][1,2,4]triazolo[1,5-c]pyrimidin-7-yl)-2-phenylpropanamido)cyclohexyl acetate] |

From patent US11472811B2, “Pyrazolotriazolopyrimidine derivatives as A2A receptor antagonist” (BEIGENE, LTD., priority 2018, dated 2022)
